Measurements published in US12419307B2, “Mixtures comprising indazole pesticides” (FMC Corporation, priority 2019, dated 2025).
Where two headings read alike, the source gives them in different places.

How the values were obtained:
Assay type in all cases: in vivo
[1] = test system: diamondback moth (Plutella xylostella L.); test: Test E: diamondback moth control on mustard plants, contact and/or systemic, plant damage rating after 6 days
Protocol: (§1) The pest control protection afforded by the mixtures or compositions is not limited, however, to these species. The analysis of enhanced activity between the mixtures or compositions was determined using Colby's equation. The average % mortality data for the test compounds alone were inserted into the Colby's equation. If the observed (obs) average % mortality was higher than “p”, the expected (exp) % mortality, the mixture or composition had enhanced effects. If the observed average % mortality was equal to or lower than the expected mortality, the mixture or composition either had no enhanced effect. For bioassays where insect feeding damage was evaluated, enhanced activity is identified when the observed plant damage is less than the expected plant damage rating; ratings ranged between 0 (no damage) and 10 (dead plant) and each value was converted to a % plant protection. 100−(Obs Plant Damage*10)
For evaluating control of diamondback moth (Plutella xylostella L.) through contact and/or systemic means, each test unit consisted of a small open container with a 10- to 12-day-old mustard plant inside. Test compounds were formulated and sprayed with 3 replications as described for Test A. After spraying, the test units were allowed to dry for 1 hour before they were infested with 30-50 neonate larvae. A black, screened cap was placed on the top of each container. The test units were held for 6 days in a growth chamber at 24-25° C. and 70% relative humidity. Each test unit was then visually assessed for plant damage and rated 0-10, where 0=undamaged and 10=plant is dead; the results are listed in Tables 6a-b.

[2] = test system: Potato Leafhopper (Empoasca fabae Harris); test: Test C: Potato Leafhopper control on bean plants, insect mortality after 6 days; conditions: read-out: % Mortality (obs)
In short: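 Sprays (3 replicates) were applied to 5- to 6-day-old Longio bean plants with one primary leaf excised, which were dried 1 h and infested with 5 adult leafhoppers (18–21 days old). Mortality was scored after 6 days at 19-21° C and 50-70% RH. Mixture enhancement was judged against expected mortality by Colby's equation.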

[3] = test system: Western Flower Thrips (Frankliniella occidentalis Pergande); test: Test B: Western Flower Thrips control on bean plants, plant damage rating converted to % plant protection after 7 days; conditions: for pest or weed control at 2.93 ppm / pest or weed control at 16.1 ppm / pest or weed control at 11.1 ppm / pest or weed control at 36.8 ppm: Frankliniella occidentalis, 168 h, read-out: Plant Protection (obs); for Plant Damage (obs): Table 3a; for Plant Damage (obs) / Plant Protection (obs): applied alone
In short: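 Sprayed 5- to 7-day-old bean (var. Soleil) plants, 3 replicates, dried 1 h, then infested with 22 to 27 adult thrips and held 7 days at 25° C, 45-55% RH. Feeding damage rated 0-10 and converted as 100−(rating×10) to % plant protection.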

[4] = test system: silverleaf whitefly (Bemisia argentifolii Bellows and Perring); test: Test A: silverleaf whitefly control on cotton or soybean plants, spray, insect mortality after 13 days; conditions: Bemisia argentifolii, applied alone, read-out: % Mortality (obs)
In short: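 Cotton (12–14-day) or soybean (5–7-day) plants carrying whitefly eggs were sprayed with compound in 10% acetone/water with non-ionic surfactant. Plants were held 13 days at 28°C and 50–70% RH; mortality was averaged over three replicates. Mixture enhancement was judged against Colby-expected values.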

[5] = test system: fall armyworm (Spodoptera frugiperda (J. E. Smith)); test: Test E: fall armyworm control on corn plants, plant damage rating and mortality after 6 days; conditions: Spodoptera frugiperda, 144 h, read-out: Plant Protection (obs)
Protocol: as §1
For evaluating control of fall armyworm (Spodoptera frugiperda (J. E. Smith)) the test unit consisted of a small open container with a 4-5-day-old corn (maize) plant inside. This was pre-infested with 10-15 1-day-old larvae on a piece of insect diet. Test compounds were formulated and sprayed with 3 replications as described for Test A. After spraying of the formulated test compound, the test units were maintained in a growth chamber for 6 days at 25° C. and 70% relative humidity. Plant feeding damage was then visually assessed based on foliage consumed, and larvae were assessed for mortality. Each test unit was then visually assessed for plant damage and rated 0-10, where 0=undamaged and 10=plant is dead; the results are listed in Tables 6d-i.

CC(C)(CS(C)(=O)=O)NC(=O)c1ccc(F)c2nn(-c3cccnc3)cc12 [Cpd 3, N-[1,1-dimethyl-2-(methylsulfonyl)ethyl]-7-fluoro-2-(3-pyridinyl)-2H-indazole-4-carboxamide]
Plant Protection (obs) ([1]; Table 6a, 50 ppm): 0.0
Plant Protection (obs) ([1]; Table 6a, 250 ppm): 0.0
Plant Protection (obs) ([1]; Table 6b, 50 ppm): 0.0
Plant Protection (obs) ([1]; Table 6b, 250 ppm): 0.0
mortality at 50 ppm ([2]; Table 4a): 0%
mortality at 250 ppm ([2]; Table 4a): 0%
mortality at 50 ppm ([2]; Table 4b): 13.3%
mortality at 250 ppm ([2]; Table 4b): 0%
mortality at 50 ppm ([2]; Table 4c): 6.7%
mortality at 250 ppm ([2]; Table 4c): 0%
pest or weed control at 2.93 ppm ([3]; Table 3e, 2.93 ppm): 83.3%
pest or weed control at 16.1 ppm ([3]; Table 3e, 16.1 ppm): 80%
pest or weed control at 2.93 ppm ([3]; Table 3f, 2.93 ppm): 40%
pest or weed control at 16.1 ppm ([3]; Table 3f, 16.1 ppm): 86.7%
pest or weed control at 2.93 ppm ([3]; Table 3g, 2.93 ppm): 43.3%
pest or weed control at 16.1 ppm ([3]; Table 3g, 16.1 ppm): 70%
Plant Damage (obs) ([3]; 2.93 ppm): 13.3%
Plant Damage (obs) ([3]; 16.1 ppm): 83.3%
Plant Protection (obs) ([3]; Table 3b, 2.93 ppm): 40.0%
Plant Protection (obs) ([3]; Table 3b, 16.1 ppm): 76.7%
Plant Protection (obs) ([3]; Table 3c, 2.93 ppm): 33.3%
Plant Protection (obs) ([3]; Table 3c, 16.1 ppm): 80.0%
mortality at 50 ppm ([4]; 2 h, Table 2h): 0%
mortality at 250 ppm ([4]; 2 h, Table 2h): 0%
mortality at 50 ppm ([4]; 48 h, Table 2d): 1.2%
mortality at 250 ppm ([4]; 48 h, Table 2d): 1.1%
mortality at 50 ppm ([4]; Table 2a): 25%
mortality at 250 ppm ([4]; Table 2a): 1.6%
mortality at 50 ppm ([4]; Table 2b): 0%
mortality at 250 ppm ([4]; Table 2b): 0%
mortality at 50 ppm ([4]; Table 2c): 16.1%
mortality at 250 ppm ([4]; Table 2c): 26.7%
mortality at 50 ppm ([4]; Table 2e): 1.3%
mortality at 250 ppm ([4]; Table 2e): 1.2%
mortality at 50 ppm ([4]; Table 2f): 21.2%
mortality at 250 ppm ([4]; Table 2f): 25.3%
mortality at 50 ppm ([4]; Table 2g): 18%
mortality at 250 ppm ([4]; Table 2g): 27.7%
pest or weed control at 50 ppm ([5]; Table 6e): 0%
pest or weed control at 250 ppm ([5]; Table 6e): 0%

CC1(NC(=O)c2cccc3nn(-c4cccnc4)cc23)CC1 [Cpd 4, N-(1-methylcyclopropyl)-2-(3-pyridinyl)-2H-indazole-4-carboxamide]
Plant Protection (obs) ([1]; Table 6a, 50 ppm): 0.0
Plant Protection (obs) ([1]; Table 6a, 250 ppm): 0.0
Plant Protection (obs) ([1]; Table 6b, 50 ppm): 0.0
Plant Protection (obs) ([1]; Table 6b, 250 ppm): 0.0
mortality at 50 ppm ([2]; Table 4a): 7.1%
mortality at 250 ppm ([2]; Table 4a): 6.7%
mortality at 50 ppm ([2]; Table 4b): 0%
mortality at 250 ppm ([2]; Table 4b): 14.3%
mortality at 50 ppm ([2]; Table 4c): 26.7%
mortality at 250 ppm ([2]; Table 4c): 0%
pest or weed control at 11.1 ppm ([3]; Table 3e, 11.1 ppm): 60%
pest or weed control at 36.8 ppm ([3]; Table 3e, 36.8 ppm): 76.7%
pest or weed control at 11.1 ppm ([3]; Table 3f, 11.1 ppm): 73.3%
pest or weed control at 36.8 ppm ([3]; Table 3f, 36.8 ppm): 90%
pest or weed control at 11.1 ppm ([3]; Table 3g, 11.1 ppm): 20%
pest or weed control at 36.8 ppm ([3]; Table 3g, 36.8 ppm): 73.3%
pest or weed control at 2.93 ppm ([3]; Table 3d, 2.93 ppm): 50%
pest or weed control at 11.1 ppm ([3]; Table 3d, 11.1 ppm): 60%
pest or weed control at 16.1 ppm ([3]; Table 3d, 16.1 ppm): 86.7%
pest or weed control at 36.8 ppm ([3]; Table 3d, 36.8 ppm): 93.3%
Plant Damage (obs) ([3]; 11.1 ppm): 43.3%
Plant Damage (obs) ([3]; 36.8 ppm): 86.7%
Plant Protection (obs) ([3]; Table 3b, 11.1 ppm): 40.0%
Plant Protection (obs) ([3]; Table 3b, 36.8 ppm): 86.7%
Plant Protection (obs) ([3]; Table 3c, 11.1 ppm): 36.7%
Plant Protection (obs) ([3]; Table 3c, 36.8 ppm): 70.0%
mortality at 50 ppm ([4]; 2 h, Table 2h): 0.9%
mortality at 250 ppm ([4]; 2 h, Table 2h): 9.2%
mortality at 50 ppm ([4]; 48 h, Table 2d): 4.9%
mortality at 250 ppm ([4]; 48 h, Table 2d): 8.3%
mortality at 50 ppm ([4]; Table 2a): 5.9%
mortality at 250 ppm ([4]; Table 2a): 11.1%
mortality at 50 ppm ([4]; Table 2b): 46.7%
mortality at 250 ppm ([4]; Table 2b): 20%
mortality at 50 ppm ([4]; Table 2c): 16.1%
mortality at 250 ppm ([4]; Table 2c): 20.5%
mortality at 50 ppm ([4]; Table 2e): 29%
mortality at 250 ppm ([4]; Table 2e): 38.3%
mortality at 50 ppm ([4]; Table 2f): 15%
mortality at 250 ppm ([4]; Table 2f): 17.9%
mortality at 50 ppm ([4]; Table 2g): 30.6%
mortality at 250 ppm ([4]; Table 2g): 23.1%
mortality at 50 ppm ([4]; Table 2i): 7%
mortality at 250 ppm ([4]; Table 2i): 8%
pest or weed control at 50 ppm ([5]; Table 6e): 0%
pest or weed control at 250 ppm ([5]; Table 6e): 0%
pest or weed control at 50 ppm ([5]; Table 6f): 0%
pest or weed control at 250 ppm ([5]; Table 6f): 0%
pest or weed control at 50 ppm ([5]; Table 6g): 0%
pest or weed control at 250 ppm ([5]; Table 6g): 20%
pest or weed control at 50 ppm ([5]; Table 6i): 0%
pest or weed control at 250 ppm ([5]; Table 6i): 0%
pest or weed control at 50 ppm ([5]; Table 6h): 0%
pest or weed control at 250 ppm ([5]; Table 6h): 20%
pest or weed control at 50 ppm ([5]; Table 6d): 0%
pest or weed control at 250 ppm ([5]; Table 6d): 0%
